From US8906868B2, “Aminoglycoside derivatives” (Rempex Pharmaceuticals, Inc., priority 2010, dated 2014) come the findings set out here.

≈ marks a conversion by molar mass, not a printed value. Like-named read-outs stand apart in the source and are kept apart here.

In experiment [1] the test system is ECM6009 aac(3)-II. The experiment is described as follows: microbe, parasite or virus in culture. It counts as cell-based, Escherichia coli. The settings on record: Escherichia coli, read-out: Compound MIC on Bacterial Strains: ECM6009 aac(3)-II. As for the experimental part:
(§1) To compare microbiological activity of the test compounds, minimum inhibitory concentrations (MIC.s) were determined. Antibiotic MICs were obtained using the broth microdilution method according to Clinical and Laboratory Standards Institute (CLSI) approved guidelines (Methods for dilution antimicrobial susceptibility tests for bacteria that grow aerobically; approved standard—7th ed. CLSI document M7-A7. Clinical and Laboratory Standards Institute, Wayne, Pa., incorporated herein by reference in its entirety). Antibiotics were dissolved as specified by CLSI (Performance standards for antimicrobial susceptibility testing; Seventeenth informational supplement. CLSI document M100-S17. Clinical and Laboratory Standards Institute, Wayne, Pa., incorporated herein by reference in its entirety), and were serially diluted 2-fold in cation adjusted Mueller Hinton Broth (CaMHB) at 2× concentration. Bacterial inoculums were prepared in CaMHB by suspension of a colony from an agar plate that was prepared the previous day to obtain a final concentration of 5×10^5CFU/ml. The plates were incubated for 18 hours at 35° C. […] MIC.s were determined by reading the turbidity of plate wells using a SpectraMax Plus384 plate reader (Molecular Devices, Sunnyvale, Calif., USA) at 600 nm and were confirmed by visual inspection.
(§2) Activity of the test compounds was determined using QC strains and strains with known aminoglycoside resistance mechanisms (TABLE 3). This specific panel contained strains expressing enzymes that covalently modify N2″, N3 and N3′ positions.

Experiment [2] relates to ECM6006 aph(3′)-III. The experiment is described as follows: microbe, parasite or virus in culture. It counts as cell-based, Escherichia coli. The note with it: Escherichia coli, read-out: Compound MIC on Bacterial Strains: ECM6006 aph(3′)-III. The protocol:
as §1, §2

For experiment [3], the system named is ECM6010 ant(2″)-I. The experiment is described as follows: microbe, parasite or virus in culture. It counts as cell-based, Escherichia coli. The note with it: Escherichia coli, read-out: Compound MIC on Bacterial Strains: ECM6010 ant(2″)-I. The protocol:
as §1, §2

Experiment [4] has as its system ECM6011 aph(3′)-I. The experiment is described as follows: microbe, parasite or virus in culture. It counts as cell-based, Escherichia coli. The settings on record: Escherichia coli, read-out: Compound MIC on Bacterial Strains: ECM6011 aph(3′)-I. The protocol: as §1, §2
For experiment [5], the system named is Klebsiella pneumonia (ATCC 43816). The experiment is described as follows: MIC, broth microdilution. The note with it: Klebsiella pneumoniae, ATCC43816, read-out: Compound MIC on Bacterial Strains: K. pneumonia ATCC 43816.
Experiment [6] has as its system ECM6003 rmtB. The experiment is described as follows: microbe, parasite or virus in culture. Type of experiment: cell-based, Escherichia coli. The note with it: Escherichia coli; Table 3; read-out: Compound MIC on Bacterial Strains: ECM6003 rmtB. As for the experimental part:
as §1, §2
The panel also contained a strain expressing ribosomal RNA methylase, RmtB.

Experiment [7] has as its system ECM6007 aac(6′) + aph(2″). The experiment is described as follows: microbe, parasite or virus in culture. The note with it: Escherichia coli, 18 h; Table 4; read-out: Compound MIC on Bacterial Strains: Escherichia coli ECM6007 aac(6′) + aph(2″). It counts as cell-based, Escherichia coli. The protocol: as §1
Experiment [8] deals with EC1001 acc(6′)-Ib. The experiment is described as follows: microbe, parasite or virus in culture. It counts as cell-based, Escherichia coli. The settings on record: Escherichia coli; Table 4; read-out: Compound MIC on Bacterial Strains: Escherichia coli EC1001 acc(6′)-Ib. The protocol: as §1
The test system of experiment [9] is ACM1006 acc(6′)-Ib. Kind of experiment: microbe, parasite or virus in culture. It counts as cell-based, Acinetobacter baumannii. The settings on record: Acinetobacter baumannii; Table 4; read-out: Compound MIC on Bacterial Strains: Acinetobacter baumannii ACM1006 acc(6′)-Ib. The protocol: as §1
The subject of experiment [10] is EC1002 aph(3′)-IV. Kind of experiment: organism not typed. Type of experiment: cell-based. The settings on record: read-out: Compound MIC on Bacterial Strains: EC1002 aph(3′)-IV. As for the experimental part:
as §1, §2

Experiment [11] concerns Staphylococcus aureus (ATCC 29213). The experiment is described as follows: MIC, broth microdilution. The settings on record: Staphylococcus aureus. Background: In broth dilution the organism is exposed to a series of concentrations in liquid medium.
Experiment [12] deals with PAM3073 aac(6′)-I. The experiment is described as follows: microbe, parasite or virus in culture. The settings on record: Pseudomonas aeruginosa, Table 5; read-out: Compound MIC on Bacterial Strains: Pseudomonas aeruginosa PAM3073 aac(6′)-I. Type of experiment: cell-based, Pseudomonas aeruginosa. The protocol:
as §1

The test system of experiment [13] is PAM3072 aac(6′)-II. Kind of experiment: microbe, parasite or virus in culture. The settings on record: Pseudomonas aeruginosa, Table 5; read-out: Compound MIC on Bacterial Strains: Pseudomonas aeruginosa PAM3072 aac(6′)-II. It counts as cell-based, Pseudomonas aeruginosa. As for the experimental part: as §1
Experiment [14] relates to Pseudomonas aeruginosa (ATCC 27853). Kind of experiment: MIC, broth microdilution. The note with it: Pseudomonas aeruginosa.
Experiment [15] deals with Acinetobacter baumannii (ATCC 19606). The experiment is described as follows: MIC, broth microdilution. The note with it: Acinetobacter baumannii, ATCC19606, read-out: Compound MIC on Bacterial Strains: A. baumannii ATCC 19606.
Experiment [16] relates to ACM1005 ATCC 19004. The experiment is described as follows: MIC, broth microdilution. It counts as cell-based, Acinetobacter baumannii. The note with it: Acinetobacter baumannii, ATCC19004; Table 4; read-out: Compound MIC on Bacterial Strains: Acinetobacter baumannii ACM1005 ATCC 19004. The protocol: as §1
Experiment [17] has as its system Escherichia coli (ATCC 25922). Kind of experiment: MIC, broth microdilution. The settings on record: Escherichia coli.
The mark [18] stands for this setting: ATCC29213, read-out: Compound MIC on Bacterial Strains: S. aureus ATCC 29213, QC strain, Table 2.
[19] abbreviates: ATCC29213, read-out: Compound MIC on Bacterial Strains: Staphylococcus aureus SAM1000 ATCC 29213, Table 5.
[20] abbreviates: ATCC27853, read-out: Compound MIC on Bacterial Strains: P. aeruginosa ATCC 27853.
Where [21] appears, read: ATCC27853, read-out: Compound MIC on Bacterial Strains: Pseudomonas aeruginosa PAM3034 ATCC 27853.
Setting [22] is: ATCC25922, read-out: Compound MIC on Bacterial Strains: E. coli ATCC 25922.
The mark [23] stands for this setting: ATCC25922, read-out: Compound MIC on Bacterial Strains: ECM6000 ATCC 25922.
Setting [24] is: ATCC25922, read-out: Compound MIC on Bacterial Strains: Escherichia coli ECM6000 ATCC 25922.

As to `CN[C@@H]1[C@@H](O)[C@@H](O[C@@H]2[C@@H](O)[C@H](O[C@H]3O[C@H](CNCCO)CC[C@H]3N)[C@@H](N)C[C@H]2NC(=O)[C@@H](O)CCCN)OC[C@]1(C)O` [Compound 40, (S)-5-amino-N-((1R,2S,3S,4R,5S)-5-amino-4-((2R,3R,6S)-3-amino-6-((2-hydroxyethylamino)methyl)tetrahydro-2H-pyran-2-yloxy)-2-((2R,3R,4R,5R)-3,5-dihydroxy-5-methyl-4-(methylamino)tetrahydro-2H-pyran-2-yloxy)-3-hydroxycyclohexyl)-2-hydroxypentanamide], the MIC in experiment [1] was less than 1 µg/mL; in [2], 1 to 8 µg/mL (≈ 1.64 to 13.1 µM); in [3], less than 1 µg/mL; in experiment [4], less than 1 µg/mL; in [5], less than 1 µg/mL; in [6], greater than 8 µg/mL. Further, the MIC in [7] was less than 1 µg/mL; in experiment [8] it was 1 to 8 µg/mL (≈ 1.64 to 13.1 µM); in experiment [9], 1 to 8 µg/mL (≈ 1.64 to 13.1 µM); in [10], 1 to 8 µg/mL (≈ 1.64 to 13.1 µM); in experiment [11] (setting [18]) it was 1 to 8 µg/mL (≈ 1.64 to 13.1 µM); in experiment [11] (setting [19]), 1 to 8 µg/mL (≈ 1.64 to 13.1 µM). The MIC in experiment [12] is 1 to 8 µg/mL (≈ 1.64 to 13.1 µM); in experiment [13], greater than 8 µg/mL; in experiment [14] (setting [20]), greater than 8 µg/mL; in [14] (setting [21]), greater than 8 µg/mL; in experiment [15], greater than 8 µg/mL; in experiment [16], 1 to 8 µg/mL (≈ 1.64 to 13.1 µM). The MIC in experiment [17] (setting [22]), in experiment [17] (setting [23]) and in experiment [17] (setting [24]) was 1 to 8 µg/mL (≈ 1.64 to 13.1 µM) throughout.

With `CN[C@@H]1[C@@H](O)[C@@H](O[C@@H]2[C@@H](O)[C@H](O[C@H]3O[C@H](CNCCO)CC[C@H]3N)[C@@H](N)C[C@H]2NC(=O)C2(O)CNC2)OC[C@]1(C)O` [Compound 43, N-((1R,2S,3S,4R,5S)-5-amino-4-((2R,3R,6S)-3-amino-6-((2-hydroxyethylamino)methyl)tetrahydro-2H-pyran-2-yloxy)-2-((2R,3R,4R,5R)-3,5-dihydroxy-5-methyl-4-(methylamino)tetrahydro-2H-pyran-2-yloxy)-3-hydroxycyclohexyl)-3-hydroxyazetidine-3-carboxamide], the MIC in experiment [1] is 1 to 8 µg/mL (≈ 1.69 to 13.5 µM); in experiment [2] it was less than 1 µg/mL; in experiment [3], less than 1 µg/mL; in experiment [4], less than 1 µg/mL; in [5], less than 1 µg/mL; in experiment [6] it was greater than 8 µg/mL. The MIC was less than 1 µg/mL in experiment [7]; 1 to 8 µg/mL (≈ 1.69 to 13.5 µM) in experiment [8]; less than 1 µg/mL in experiment [9]; 1 to 8 µg/mL (≈ 1.69 to 13.5 µM) in [10]; less than 1 µg/mL in [11] (setting [18]); less than 1 µg/mL in experiment [11] (setting [19]). The MIC was 1 to 8 µg/mL (≈ 1.69 to 13.5 µM) in experiment [12]; greater than 8 µg/mL in experiment [13]; 1 to 8 µg/mL (≈ 1.69 to 13.5 µM) in experiment [14] (setting [20]); 1 to 8 µg/mL (≈ 1.69 to 13.5 µM) in [14] (setting [21]); greater than 8 µg/mL in experiment [15]; 1 to 8 µg/mL (≈ 1.69 to 13.5 µM) in experiment [16]. Besides, the MIC in [17] (setting [22]), in experiment [17] (setting [23]) and in experiment [17] (setting [24]) was less than 1 µg/mL in each case.

Regarding `CCN[C@@H]1C[C@H](N)[C@@H](O[C@H]2OC(CN)=CC[C@H]2N)[C@H](O)[C@H]1O[C@H]1OC[C@](C)(O)[C@H](NC)[C@H]1O` [Netilmicin, reference compound], the MIC is greater than 8 µg/mL in [1]; less than 1 µg/mL in experiment [2]; less than 1 µg/mL in experiment [3]; less than 1 µg/mL in [4]; less than 1 µg/mL in experiment [5]; greater than 8 µg/mL in experiment [6]. Besides, the MIC in experiment [7] was less than 1 µg/mL; in [8] it was greater than 8 µg/mL; in experiment [9], greater than 8 µg/mL; in experiment [10], less than 1 µg/mL; in [11] (setting [18]), less than 1 µg/mL; in experiment [11] (setting [19]), less than 1 µg/mL. Further, the MIC is greater than 8 µg/mL in experiment [12]; greater than 8 µg/mL in experiment [13]; 1 to 8 µg/mL (≈ 2.1 to 16.8 µM) in experiment [14] (setting [20]); 1 to 8 µg/mL (≈ 2.1 to 16.8 µM) in experiment [14] (setting [21]); greater than 8 µg/mL in experiment [15]; 1 to 8 µg/mL (≈ 2.1 to 16.8 µM) in [16]. The MIC in [17] (setting [22]), in experiment [17] (setting [23]) and in [17] (setting [24]) was less than 1 µg/mL each time.

As for `CN[C@@H]1C(O)[C@@H](OC2C(O)C(O[C@H]3O[C@H](CN)CCC3N)[C@@H](N)C[C@H]2NC(=N)CO)OCC1(C)O` (stereo partly drawn) [Compound 22, N-((1R,2S,3S,4R,5S)-5-amino-4-((2R,3R,6S)-3-amino-6-(aminomethyl)tetrahydro-2H-pyran-2-vlxy)-2-((2R,3R,4R,5R)-3,5-dihydroxy-5-methyl-4-(methylamino)tetrahydro-2H-pyran-2-yloxy)-3-hydroxycyclohexyl)-2-hydroxy acetimidamide], the MIC in [1] is greater than 8 µg/mL; in experiment [2], 1 to 8 µg/mL (≈ 1.97 to 15.8 µM); in [3], greater than 8 µg/mL; in experiment [4] it was 1 to 8 µg/mL (≈ 1.97 to 15.8 µM); in [5], less than 1 µg/mL; in experiment [6] it was greater than 8 µg/mL. For the same compound, the MIC in experiment [7] is 1 to 8 µg/mL; in experiment [8], greater than 8 µg/mL; in experiment [9] it was greater than 8 µg/mL; in [10], 1 to 8 µg/mL (≈ 1.97 to 15.8 µM); in experiment [11] (setting [18]), less than 1 µg/mL; in experiment [11] (setting [19]), less than 1 µg/mL. The MIC in experiment [12] was 1 to 8 µg/mL (≈ 1.97 to 15.8 µM); in experiment [13], greater than 8 µg/mL; in experiment [14] (setting [20]), less than 1 µg/mL; in experiment [14] (setting [21]), 1 to 8 µg/mL (≈ 1.97 to 15.8 µM); in experiment [15], greater than 8 µg/mL; in [16] it was 1 to 8 µg/mL (≈ 1.97 to 15.8 µM). For the same compound, the MIC in experiment [17] (setting [22]), in experiment [17] (setting [23]) and in experiment [17] (setting [24]) was 1 to 8 µg/mL (≈ 1.97 to 15.8 µM) in each case.
